Measurements as given in patent US20050196362A1, “Personal care compositions containing highly branched primary alcohol component” (priority 2004, published 2005).
Each block holds one compound with its values, some of them ahead of it.

Legend:
[1] = Viscosity of lotion/moisturizer emulsions containing the fatty alcohol; format: physicochemical
Experimental: Solubility: Two emulsion types (W/O-water-in-oil night cream/lotion and O/W-oil-in-water moisturizer lotion) were prepared. Both types of products incorporated commonly used cosmetic ingredients. The C1617 MM MO and the Guerbet C16 alcohols were used at 15% in the W/O lotion and 10% in the moisturizer.
MO C1617 mono-methyl branched primary alcohol was formulated in a water-in-oil night cream and an oil-in-water moisturizer formula as indicated in Tables 8 and 10 respectively. The viscosity and formula properties of the MO methyl-branched primary alcohol were evaluated relative to a branched C18 emollient alcohol and the data is indicated in Tables 9 and 11 respectively.

[2] = Freeze/Thaw testing of prototype formulation (3 cycles); format: physicochemical; settings: three 24 hr. freeze/thaw cycles
Experimental: Freeze/Thaw testing: Phase stability was observed using approximately 30 ml of a prototype formulation. After preparation, the samples were cooled until solid for 24 hrs. They were allowed to equilibrate to room temperature when the appearance of the formulation was recorded. This process was repeated for three 24 hr. freeze/thaw cycles.

[3] = In vitro SPF of sunscreen formulation with dispersing agent; settings: sunscreen formulation with 15.00 % by weight dispersing agent; artificial medium
Experimental: (§1) This example compares the alcohol of the present invention to several other dispersing agents in terms of in vitro SPF and viscosity. In vitro SPF means that the test was not carried out on human skin, but an artificial medium. The sunscreen formulation is manufactured as follows. The ingredients of Phase A are combined together at 75° C. The ingredients of Phase B are combined together at 75° C. Phase B is then added to Phase A. Phase C is added to the resulting mixture, followed by cooling of the mixture to 40° C. and adding Phase D. The formulation is ready for packaging at a temperature of 35° C.

[4] = Oven stability test of W/O and O/W lotions; format: physicochemical; settings: 90 days at 23° C. and 45° C.
Experimental: Stability Tests: All W/O and O/W lotions were placed on stability testing for phase and odor stability monitoring for 90 days at 23° C. (room temperature) and 45° C.

[5] = Viscosity of sunscreen formulation with dispersing agent; format: physicochemical; settings: sunscreen formulation with 15.00 % by weight dispersing agent
Experimental: as §1

[6] = Solubility profile of branched emollient alcohols in cosmetic solvents; format: physicochemical; design: key: +: Soluble; +/−: Dispersible
[7] = Pigment dispersion: amount of Z-cote dispersed before viscosity reaches 10,000 cps; format: physicochemical; settings: 100 g solubilizer/dispersant; Brookfield RVT 20 rpm, 25° C.
Experimental: (§2) The branched primary alcohol component and the Z-cote were mixed for 15 minutes at 5000 rpm using a Silverson mixer to form a dispersion of zinc oxide in the alcohol component. The dispersion was allowed to equilibrate to room temperature (25° C.), and then viscosity measurements were taken using a Brookfield (RTM) RVT Viscometer set at 20 rpm. Additional Z-cote was then added to the branched alcohol component in incremental amounts of 15 g. Viscosity measurements were taken after mixing each incremental amount of Z-cote with the branched alcohol component for 15 minutes and after allowing the resulting dispersion to return to room temperature. When the viscosity of the dispersion reached or exceeded 10,000 cps no further additions of Z-cote were made and no further viscosity measurements were taken. A target viscosity of 10,000 cps was selected since a dispersion having a viscosity of greater than 10,000 cps is not preferred for use in a sunscreen composition.
From FIG. 1, the amount of Z-cote needed to provide a dispersion having a viscosity of 10,000 cps may be determined for each solubilizer/dispersant.
(§3) Pigment Dispersion: Pigment was added to a 100 gm of emollient sample. The mixture was blended using a Silverson mixer for 15 minutes at 5000 rpm. The viscosity was measured after the sample had equilibrated to room temperature.

[8] = Pigment dispersion: amount of Z-cote HP1 dispersed before viscosity reaches 10,000 cps; format: physicochemical; settings: 100 g solubilizer/dispersant; Brookfield RVT 20 rpm, 25° C.
Experimental: as §2, §3

[9] = Pigment dispersion: amount of Eusolex T2000 dispersed before viscosity reaches 10,000 cps; format: physicochemical; settings: 100 g solubilizer/dispersant; Brookfield RVT 20 rpm, 25° C.
Experimental: as §2, §3

[10] = Table 8 formulation, 15.0 % wt fatty alcohol
[11] = Table 10 oil-in-water moisturizer, 10.0 % wt fatty alcohol

Viscosity, cps [1, 10]: 7,600 cps | Viscosity, cps [1, 11]: 11,300 cps | Freeze-Thaw (3 cycles) [2, 10]: Pass | Freeze-Thaw (3 cycles) [2, 11]: Pass | Oven Stability [4, 10]: Pass | Oven Stability [4, 11]: Pass | Viscosity, cps [5]: 2700 cps | Solubility ([6]; C12-15 Alkyl Benzoate (90%), @ 25° C.): + | Solubility ([6]; C12-15 Alkyl Benzoate (90%), @ 50° C.): + | Solubility ([6]; Dimethicone 245 (90%), @ 25° C.): + | Solubility ([6]; Dimethicone 245 (90%), @ 50° C.): + | Solubility ([6]; Isododecane (90%), @ 25° C.): + | Solubility ([6]; Isododecane (90%), @ 50° C.): + | Solubility ([6]; Isohexadecane (90%), @ 25° C.): + | Solubility ([6]; Isohexadecane (90%), @ 50° C.): + | Solubility ([6]; Isopropylmyristyl Alcohol (90%), @ 25° C.): + | Solubility ([6]; Isopropylmyristyl Alcohol (90%), @ 50° C.): + | Solubility ([6]; Mineral Oil (90%), @ 25° C.): + | Solubility ([6]; Mineral Oil (90%), @ 50° C.): + | Solubility ([6]; Octocrylene (30%), @ 25° C.): + | Solubility ([6]; Octocrylene (30%), @ 50° C.): + | Solubility ([6]; Octyl Dimethyl Paba (30%), @ 25° C.): + | Solubility ([6]; Octyl Dimethyl Paba (30%), @ 50° C.): + | Solubility ([6]; Octyldodecanol (90%), @ 25° C.): + | Solubility ([6]; Octyldodecanol (90%), @ 50° C.): + | Solubility ([6]; Propylene Glycol (90%), @ 25° C.): +/− | Solubility ([6]; Propylene Glycol (90%), @ 50° C.): + | Solubility ([6]; Sesame Oil (90%), @ 25° C.): + | Solubility ([6]; Sesame Oil (90%), @ 50° C.): +
Compound: CCCCCCCCC(CO)CCCCCC (centres unmarked) [Guerbet C16 Branched]
In-vitro SPF [3]: 22.6

Amount in grams of Z-cote needed to give a viscosity of 10,000 cps [7]: 20 grams | Amount in grams of Z-cote HP1 needed to give a viscosity of 10,000 cps [8]: 50 grams | Amount in grams of Eusolex T2000 needed to give a viscosity of 10,000 cps [9]: 34 grams
Compound: CCCCCCCCOC(=O)CCCCCCCCC(=O)OCCCCCCCC [Dioctyl sebacate (DOS), Dioctyl sebacate]

Amount in grams of Z-cote needed to give a viscosity of 10,000 cps [7]: 24 grams | Amount in grams of Z-cote HP1 needed to give a viscosity of 10,000 cps [8]: 65 grams | Amount in grams of Eusolex T2000 needed to give a viscosity of 10,000 cps [9]: 35 grams
Compound: octyldodecyl neopentanoate [Elefac I-205]

Viscosity, cps [5]: 13000 cps
Compound: CCCCCCCCCCCCCCCC(=O)OCC(CC)CCCC (centres unmarked) [Ethylhexylpalmitate]
In-vitro SPF [3]: 22.73
